According to patent publication US20210395239A1 (Hoffmann-La Roche Inc., priority 2018, published 2021):

Target: T1, hTLR9 (Homo sapiens, UniProt Q9NR96)
T1 sequence (Q9NR96 26-1032): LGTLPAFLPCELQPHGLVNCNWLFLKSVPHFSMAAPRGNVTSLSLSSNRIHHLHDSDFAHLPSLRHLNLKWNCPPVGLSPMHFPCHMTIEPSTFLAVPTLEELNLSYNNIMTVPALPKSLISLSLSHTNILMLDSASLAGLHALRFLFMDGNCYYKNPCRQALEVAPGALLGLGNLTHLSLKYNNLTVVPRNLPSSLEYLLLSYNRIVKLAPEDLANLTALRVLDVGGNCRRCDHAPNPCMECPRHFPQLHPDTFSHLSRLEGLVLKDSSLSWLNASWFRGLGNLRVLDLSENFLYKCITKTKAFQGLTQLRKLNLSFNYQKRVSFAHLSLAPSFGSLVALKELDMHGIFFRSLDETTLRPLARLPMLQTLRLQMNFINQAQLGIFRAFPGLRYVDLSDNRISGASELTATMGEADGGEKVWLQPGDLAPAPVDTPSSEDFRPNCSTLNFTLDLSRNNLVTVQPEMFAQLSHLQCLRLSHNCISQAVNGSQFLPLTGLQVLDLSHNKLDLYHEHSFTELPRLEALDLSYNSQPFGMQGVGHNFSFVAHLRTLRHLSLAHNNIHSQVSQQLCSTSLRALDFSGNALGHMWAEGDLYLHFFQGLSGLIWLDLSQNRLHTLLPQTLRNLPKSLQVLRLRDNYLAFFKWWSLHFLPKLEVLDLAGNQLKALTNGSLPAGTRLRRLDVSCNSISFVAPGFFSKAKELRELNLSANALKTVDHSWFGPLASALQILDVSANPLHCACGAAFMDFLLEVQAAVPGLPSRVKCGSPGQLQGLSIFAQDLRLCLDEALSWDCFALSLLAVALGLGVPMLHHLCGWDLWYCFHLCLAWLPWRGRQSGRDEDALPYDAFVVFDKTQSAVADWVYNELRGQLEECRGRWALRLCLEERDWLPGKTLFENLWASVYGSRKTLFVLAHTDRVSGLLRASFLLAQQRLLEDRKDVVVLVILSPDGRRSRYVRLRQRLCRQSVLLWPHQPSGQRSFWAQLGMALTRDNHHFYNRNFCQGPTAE
Test: HEK293-Blue-hTLR-9 cells assay (SEAP reporter, ODN2006 stimulation)
Assay type: cell-based
Parameters: host or cells: HEK293 (HEK-Blue hTLR9)
Details: HEK293-Blue-hTLR9 cells, ODN2006, 20 hrs; read-out: HEK/hTLR9 IC50
Outline: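 Antagonism read as lowered SEAP reporter absorbance (620–655 nm, QUANTI-Blue, 2 h, 37 °C) in supernatants. Before that, ODN2006-stimulated HEK293-Blue cells stably expressing human TLR9 were exposed to compound dilutions at 1% final DMSO for 20 h at 37 °C.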

First: Cc1nc(N2CCNCC2)nc(N2CCN(C[C@H]3CN(c4ccc(C#N)c5ncccc45)C[C@@H](C)O3)CC2)c1C [Example 46, 5-[(2S,6R)-2-[[4-(5,6-dimethyl-2-piperazin-1-yl-pyrimidin-4-yl)piperazin-1-yl]methyl]-6-methyl-morpholin-4-yl]quinoline-8-carbonitrile]
Second: Cc1cc(N2CCN(C[C@H]3CN(c4ccc(C#N)c5ncccc45)C[C@@H](C)O3)CC2)nc(N2CCNCC2)n1 [Example 47, 5-[(2R,6S)-2-methyl-6-[[4-(6-methyl-2-piperazin-1-yl-pyrimidin-4-yl)piperazin-1-yl]methyl]morpholin-4-yl]quinoline-8-carbonitrile]
The IC50 of the first is 2.3-fold higher: 157 nM for the first, 67 nM for the second. The second is the more potent here.

COc1cnc(N2CCNCC2)nc1N1CCN(C[C@H]2CN(c3ccc(C#N)c4ncccc34)C[C@@H](C)O2)CC1 [Example 48, 5-[(2S,6R)-2-[[4-(5-methoxy-2-piperazin-1-yl-pyrimidin-4-yl)piperazin-1-yl]methyl]-6-methyl-morpholin-4-yl]quinoline-8-carbonitrile] and C[C@@H]1CN(c2ccc(C#N)c3ncccc23)C[C@H](CN2CCN(c3nc(N4CCNCC4)ncc3C#N)CC2)O1 [Example 50, 5-[(2S,6R)-2-[[4-(5-cyano-2-piperazin-1-yl-pyrimidin-4-yl)piperazin-1-yl]methyl]-6-methyl-morpholin-4-yl]quinoline-8-carbonitrile] are within 1.5-fold of each other in IC50: 121 nM for the first, 126 nM for the second.

Going from C[C@@H]1CN(c2ccc(C#N)c3ncccc23)C[C@H](CN2CCN(c3nc(N4CCNCC4)nc4ccccc34)CC2)O1 [Example 49, 5-[(2R,6S)-2-methyl-6-[[4-(2-piperazin-1-ylquinazolin-4-yl)piperazin-1-yl]methyl]morpholin-4-yl]quinoline-8-carbonitrile] to Cc1cc(N2CCNCC2)nc(N2CCN(C[C@H]3CN(c4ccc(C#N)c5ncccc45)C[C@@H](C)O3)CC2)n1 [Example 68, 5-[(2R,6S)-2-methyl-6-[[4-(4-methyl-6-piperazin-1-yl-pyrimidin-2-yl)piperazin-1-yl]methyl]morpholin-4-yl]quinoline-8-carbonitrile], the IC50 falls from 146 nM to 95 nM (1.5-fold).

Going from C[C@@H]1CN(c2ccc(C#N)c3ncccc23)C[C@H](CN2CCN(c3ncc(C#N)c(N4CCNCC4)n3)CC2)O1 [Example 51, 5-[(2S,6R)-2-[[4-(5-cyano-4-piperazin-1-yl-pyrimidin-2-yl)piperazin-1-yl]methyl]-6-methyl-morpholin-4-yl]quinoline-8-carbonitrile] to Cc1cc(N2CCN(C[C@H]3CN(c4ccc(C#N)c5ncccc45)C[C@@H](C)O3)CC2)nc(N2CCNCC(O)C2)n1 (stereo partly drawn) [Example 66, 5-[(2S,6R)-2-[[4-[2-(6-hydroxy-1,4-diazepan-1-yl)-6-methyl-pyrimidin-4-yl]piperazin-1-yl]methyl]-6-methyl-morpholin-4-yl]quinoline-8-carbonitrile], the IC50 falls from 121 nM to 32 nM (3.8-fold).

Cc1cc(N2CCN(C[C@H]3CN(c4ccc(C#N)c5ncccc45)C[C@@H](C)O3)CC2)nc(N2C[C@@H](N)[C@@H](F)C2)n1 [Example 55, 5-[(2S,6R)-2-[[4-[2-[(3R,4S)-3-amino-4-fluoro-pyrrolidin-1-yl]-6-methyl-pyrimidin-4-yl]piperazin-1-yl]methyl]-6-methyl-morpholin-4-yl]quinoline-8-carbonitrile] and CO[C@H]1CN(c2nc(C)cc(N3CCN(C[C@H]4CN(c5ccc(C#N)c6ncccc56)C[C@@H](C)O4)CC3)n2)C[C@H]1N [Example 60, 5-[(2R,6S)-2-methyl-6-[[4-[6-methyl-2-[cis-3-amino-4-methoxy-pyrrolidin-1-yl]pyrimidin-4-yl]piperazin-1-yl]methyl]morpholin-4-yl]quinoline-8-carbonitrile] are the same in IC50: 32 nM for the first, 32 nM for the second.

Cc1cc(N2CCN(C[C@H]3CN(c4ccc(C#N)c5ncccc45)C[C@@H](C)O3)CC2)nc(N2CCOCC(N)C2)n1 (stereo partly drawn) [Example 56, 5-[(2S,6R)-2-[[4-[2-(6-amino-1,4-oxazepan-4-yl)-6-methyl-pyrimidin-4-yl]piperazin-1-yl]methyl]-6-methyl-morpholin-4-yl]quinoline-8-carbonitrile] and Cc1cc(N2CCN(C[C@H]3CN(c4ccc(C#N)c5ncccc45)C[C@@H](C)O3)CC2)nc(N2C[C@@H]3COC[C@@H](C2)N3)n1 [Example 58, 5-[(2R,6S)-2-methyl-6-[[4-[6-methyl-2-[(1R,5R)-3-oxa-7,9-diazabicyclo[3.3.1]nonan-7-yl]pyrimidin-4-yl]piperazin-1-yl]methyl]morpholin-4-yl]quinoline-8-carbonitrile] are within 1.5-fold of each other in IC50: 34 nM for the first, 45 nM for the second.

Going from Cc1cc(N2CCN(C[C@H]3CN(c4ccc(C#N)c5ncccc45)C[C@@H](C)O3)CC2)nc(NC2CNCC2C#N)n1 (stereo partly drawn) [Example 57, 5-[(2S,6R)-2-[[4-[2-[(4-cyanopyrrolidin-3-yl)amino]-6-methyl-pyrimidin-4-yl]piperazin-1-yl]methyl]-6-methyl-morpholin-4-yl]quinoline-8-carbonitrile] to Cc1cc(N2CCN(C[C@H]3CN(c4ccc(C#N)c5ncccc45)C[C@@H](C)O3)CC2)nc(N2CC(N)C(F)(F)C2)n1 (stereo partly drawn) [Example 63, 5-[(2S,6R)-2-[[4-[2-(4-amino-3,3-difluoro-pyrrolidin-1-yl)-6-methyl-pyrimidin-4-yl]piperazin-1-yl]methyl]-6-methyl-morpholin-4-yl]quinoline-8-carbonitrile], the IC50 rises from 38 nM to 246 nM (6.5-fold). The first is the more potent here.

Cc1cc(N2CCN(C[C@H]3CN(c4ccc(C#N)c5ncccc45)C[C@@H](C)O3)CC2)nc(N2CC3(CNCCO3)C2)n1 [Example 61, 5-[(2R,6S)-2-methyl-6-[[4-[6-methyl-2-(5-oxa-2,8-diazaspiro[3.5]nonan-2-yl)pyrimidin-4-yl]piperazin-1-yl]methyl]morpholin-4-yl]quinoline-8-carbonitrile] and Cc1cc(N2CCN(C[C@H]3CN(c4ccc(C#N)c5nccnc45)C[C@@H](C)O3)CC2)nc(N2CCNCC2)n1 [Example 64, 8-[(2R,6S)-2-methyl-6-[[4-(6-methyl-2-piperazin-1-yl-pyrimidin-4-yl)piperazin-1-yl]methyl]morpholin-4-yl]quinoxaline-5-carbonitrile] are within 1.5-fold of each other in IC50: 32 nM for the first, 35 nM for the second.

C[C@@H]1CN(c2ccc(C#N)c3ncccc23)C[C@H](CN2CCN(c3cccc(C4CNCCO4)c3)CC2)O1 (stereo partly drawn) [Example 62, 5-[(2R,6S)-2-methyl-6-[[4-(3-morpholin-2-ylphenyl)piperazin-1-yl]methyl]-morpholin-4-yl]quinoline-8-carbonitrile] and C[C@@H]1CN(c2ccc(C#N)n3ncc(F)c23)C[C@H](CN2CCN(c3ccc(N4C[C@H]5NCCO[C@@H]5C4)nc3)CC2)O1 [Example 168, 4-[(2S,6R)-2-[[4-[6-[(4aR,7aR)-3,4,4a,5,7,7a-hexahydro-2H-pyrrolo[3,4-b][1,4]oxazin-6-yl]-3-pyridyl]piperazin-1-yl]methyl]-6-methyl-morpholin-4-yl]-3-fluoro-pyrazolo[1,5-a]pyridine-7-carbonitrile] are within 1.5-fold of each other in IC50: 92 nM for the first, 116 nM for the second.

Compared with Cc1cc(N2CCN(C[C@H]3CN(c4ccc(C(F)(F)F)c5nccnc45)C[C@@H](C)O3)CC2)nc(N2CCNCC2)n1 [Example 65, (2R,6S)-2-methyl-6-[[4-(6-methyl-2-piperazin-1-yl-pyrimidin-4-yl)piperazin-1-yl]methyl]-4-[8-(trifluoromethyl)quinoxalin-5-yl]morpholine], Cc1cc(N2CCN(C[C@H]3CN(c4ccc(C#N)n5ncc(F)c45)C[C@@H](C)O3)CC2)nc(N2CCNCC2)n1 [Example 67, 3-Fluoro-4-[(2R,6S)-2-methyl-6-[[4-(6-methyl-2-piperazin-1-yl-pyrimidin-4-yl)piperazin-1-yl]methyl]morpholin-4-yl]pyrazolo[1,5-a]pyridine-7-carbonitrile] is 1.6-fold lower in IC50: 129 nM for the first, 81 nM for the second.

Compared with C[C@@H]1CN(c2ccc(C#N)n3ncc(F)c23)C[C@H](CN2CCN(c3ccc(N[C@H]4CNC[C@H]4F)nc3)CC2)O1 [Example 167, 3-fluoro-4-[(2S,6R)-2-[[4-[6-[[(3S,4R)-4-fluoropyrrolidin-3-yl]amino]-3-pyridyl]piperazin-1-yl]methyl]-6-methyl-morpholin-4-yl]pyrazolo[1,5-a]pyridine-7-carbonitrile], C[C@@H]1CN(c2ccc(C#N)n3ncc(F)c23)C[C@H](CN2CCN(c3ccc(N4CC5(CNCCO5)C4)nc3)CC2)O1 [Example 169, 3-fluoro-4-[(2R,6S)-2-methyl-6-[[4-[6-(5-oxa-2,8-diazaspiro[3.5]nonan-2-yl)-3-pyridyl]piperazin-1-yl]methyl]morpholin-4-yl]pyrazolo[1,5-a]pyridine-7-carbonitrile] is 1.7-fold higher in IC50: 46 nM for the first, 78 nM for the second.
